We go through 2 substances from US20120020930A1, “METHODS FOR THE PREPARATION OF ADIPOSE DERIVED STEM CELLS AND UTILIZING SAID CELLS IN THE TREATMENT OF DISEASES” (CELLERIX, S.A., priority 2008, published 2012).

Test [1] relates to ASC. As to the kind of experiment: IDO expression in ASC upon stimulation with pro-inflammatory mediators (RT-PCR and Western Blot). It counts as cell-based. Particulars: TNF-α at 50 ng/mi.
In test [2] the test system is ASC. Description: Transwell migration of ASC towards SDF-1 in the presence of Diprotin A. The test is classed as cell-based, human. Particulars: Diprotin A 0, 1, 5, 10 mM on upper surface; SDF-1 50 μM in well; 24 h; crystal violet stained cells counted; FIG. 1. As to the method:
ASC were obtained from lipoaspirates obtained from human adipose tissue from healthy adult donors. Lipoaspirates were washed twice with PBS, and digested at 37° C. for 30 minutes with 0.075% collagenase (Type I, Invitrogen, Carlsbad, Calif.) in PBS. The digested sample was washed with 10% of fetal bovine serum (FBS), treated with 160 mM CINH4, suspended in culture medium (DMEM containing 10% FBS) and filtered through a 40-μm nylon mesh. Cells were seeded (2-3×10^4 cells/cm^2) onto tissue culture flasks and expanded at 37° C. and 5% CO2, changing the culture medium every 7 days. Cells were passed to a new culture flask (1,000 cells/cm^2) when cultures reached 90% of confluence. Cells were phenotypically characterized by their capacity to differentiate into chondro-, osteo-, and adipo-genic lineages. A pool of 6 ASC samples from different donors (culture passage 4-6) was used.
ASC (10^4 cells) were seeded onto the upper surface of a Transwell permeable support insert with a pore size of 8 μm. The permeable supports were inserted into a 24 well plate. […]
Stained cells (i.e. those having migrated to the underside of the permeable support) were then counted. Total number of counted cells per experimental condition is shown (two inserts per condition were counted).

“Also recorded” adds a separate entry of the source.

In the case of TNF-α, in the test with ASC [1], the IDO expression entry is on record as “did not induce IDO expression”.

Take Ile-Pro-Ile [Diprotin A]: the “number of migrating cells (ASC migration to the underside of the permeable support)” value with ASC [2] was “increased migration of cells; also recorded: increased in proportion to the amount of Diprotin A”.
